{"source": "PubChem BioAssay AID1918931", "about": "(Molecular Pharmacology Branch, DTP, NCI, 2023);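 further: spheroids exposed to agents for 7 days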;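 on viability, T/C: 100% = DMSO vehicle control viability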", "system": "138582-337-R-J1-PDC complex spheroid viability", "assay": "Anticancer human tumor 138582-337-R-J1-PDC patient-derived Merkel cell tumor cell line growth inhibition", "conditions": "for IC50: curve of first compound; for viability, T/C: stronger effect = lower value", "text": "Multicellular complex tumor spheroid response to LSD1 Inhibitor Iadademstat in combination with a variety of drugs and investigational agents in selected tumor cell lines\nThe current study was undertaken to assess response to LSD1 inhibitors in combination with standard-of-care drugs and investigational agents in solid tumor complex spheroid models as well as in the K-562 leukemia. Complex spheroids include a stromal component modeled by human endothelial cells (HUVEC) and fibroblasts modeled by human mesenchymal stem cells (MSCs). The concentration ranges selected for each drug and investigational agent were based upon clinically achievable concentrations if the clinical Cmax of the agent was known.\nCompounds. The drugs and investigational agents used in this study are listed on Table 1. All of the agents used, including staurosporine (NSC755774) and gemcitabine (NSC613327), were obtained from the Developmental Therapeutics Program, NCI. FDA-approved anticancer drugs are available from the NCI at http://dtp.nci.nih.gov/branches/dscb/oncology_drugset_explanation.html. Drugs and investigational agents were >95% pure by proton nuclear magnetic resonance (NMR) and liquid chromatography/mass spectrometry (LC/MS). Stock solutions were prepared at 400x in DMSO, stored at -70 degrees C, and diluted in fresh medium prior to their use. The final concentration of DMSO in cell culture wells never exceeded 0.25% (v/v). The FDA-approved anticancer drug set is available from the Developmental Therapeutics Program at https://dtp.cancer.gov/organization/dscb/obtaining/available_plates.htm. All drugs and investigational agents were tested over a range starting from a high concentration at or near the clinical Cmax and decreasing in half-log increments. If the clinical Cmax for an agent had not been determined, the highest concentration tested was 10 microM.\nCell Lines. The patient-derived cancer cell (PDC) lines: 292921-168-R-J2-PDC, K24384-001-R-PDC, and 521955-158-R2-J5-PDC pancreatic carcinomas, 556581-035-R-J1 ovarian carcinoma, 324938-238-R-J1-PDC, 855422-203-R-J1-PDC and 883617-216-R-J1-PDC urothelial bladder carcinomas, 743489-274-T-PDC renal cell carcinoma, 138582-R-J1 Merkel cell tumor, K60290-347-R-J1 and K57222-313-R-J1-PDC glioblastomas, 653999-131-R-J2-PDC, LG0703-F948-PDC, and 349418-098-R-PDC non-small cell lung carcinomas, 885512-296-R-J2-PDC, 171881-019-R-J1-PDC breast carcinomas and 186277-243-T-J2-PDC and 233499-124-R-J2-PDC colon carcinomas were obtained from the NCI Patient-Derived Models Repository (PDMR, https://pdmr.cancer.gov). The established cell lines NCI/ADR-RES (RRID:CVCL_14520 and OVCAR-5 (RRID:CVCL_1628) ovarian carcinomas, 786-O (RRID:CVCL_1051) and A498 (RRID:CVCL_A498) renal cell carcinoma, NCI-H211 (ATCC, cat. CRL-5824; RRID:CVCL_1529), NCI-H196 (ATCC, cat. CRL-5823, RRID:CVCL_1509), SW 1271 (ATCC, cat. CRL-2177, RRID:CVCL_1716) and NCI-H1876 (ATCC, cat. CRL-5902, RRID:CVCL_1503) small cell lung carcinomas, MDA-MB-231 (RRID:CVCL_0062) and MDA-MB-468 (RRID:CVCL_0419)breast carcinomas (10-12). Pooled donor human umbilical vein endothelial cells (HUVEC, Lonza, cat. CC-2519) and human mesenchymal stem cells (hMSC, Lonza, cat. PT-2501) were purchased from Lonza (Walkersville, MD).\nCell Culture. All cells were maintained in an incubator at 37 degrees C and 5% CO2 with 95% humidity. The PDC lines were cultured according to standard operating procedures established by the NCI PDMR (https://pdmr.cancer.gov). Briefly all PDCs were thawed and cultured in Matrigel-coated flasks prepared with a working solution of 1X Ham's F-12 nutrient mix, without supplementation (Invitrogen, Waltham, MA, cat. 11765054), 100 U/mL penicillin-streptomycin (Invitrogen, cat. 15140122), and 2.5% Matrigel (Corning Inc., Corning, NY, cat. 354248) for the first three passages. […]", "data": [{"smiles": "CC[C@@]1(O)C(=O)OCc2c1cc1n(c2=O)Cc2cc3c(CN(C)C)c(O)ccc3nc2-1", "note": "+ NC1CC1c1ccc(-c2cccc(O)c2)cc1", "values": [{"measurement": "IC50", "setting": "second compound 0.1 µM", "value": "> 100", "unit": "nM"}, {"measurement": "IC50", "setting": "second compound 0.316 µM", "value": "> 100", "unit": "nM"}, {"measurement": "IC50", "setting": "second compound 1 µM", "value": "> 100", "unit": "nM"}, {"measurement": "IC50", "setting": "second compound 3.16 µM", "value": "> 100", "unit": "nM"}, {"measurement": "IC50", "setting": "second compound 10 µM", "value": "> 100", "unit": "nM"}, {"measurement": "viability, T/C", "setting": "second compound 0.1 µM, first compound 0.000316 µM", "value": 70.6, "unit": "%"}, {"measurement": "viability, T/C", "setting": "second compound 0.1 µM, first compound 0.001 µM", "value": 71.1, "unit": "%"}, {"measurement": "viability, T/C", "setting": "second compound 0.1 µM, first compound 0.00316 µM", "value": 63.5, "unit": "%"}, {"measurement": "viability, T/C", "setting": "second compound 0.1 µM, first compound 0.01 µM", "value": 80, "unit": "%"}, {"measurement": "viability, T/C", "setting": "second compound 0.1 µM, first compound 0.0316 µM", "value": 68.5, "unit": "%"}, {"measurement": "viability, T/C", "setting": "second compound 0.1 µM, first compound 0.1 µM", "value": 76.8, "unit": "%"}, {"measurement": "viability, T/C", "setting": "second compound 0.316 µM, first compound 0.000316 µM", "value": 80.2, "unit": "%"}, {"measurement": "viability, T/C", "setting": "second compound 0.316 µM, first compound 0.001 µM", "value": 70.7, "unit": "%"}, {"measurement": "viability, T/C", "setting": "second compound 0.316 µM, first compound 0.00316 µM", "value": 73.2, "unit": "%"}, {"measurement": "viability, T/C", "setting": "second compound 0.316 µM, first compound 0.01 µM", "value": 68.5, "unit": "%"}, {"measurement": "viability, T/C", "setting": "second compound 0.316 µM, first compound 0.0316 µM", "value": 66.6, "unit": "%"}, {"measurement": "viability, T/C", "setting": "second compound 0.316 µM, first compound 0.1 µM", "value": 75.9, "unit": "%"}, {"measurement": "viability, T/C", "setting": "second compound 1 µM, first compound 0.000316 µM", "value": 70.8, "unit": "%"}, {"measurement": "viability, T/C", "setting": "second compound 1 µM, first compound 0.001 µM", "value": 70.7, "unit": "%"}, {"measurement": "viability, T/C", "setting": "second compound 1 µM, first compound 0.00316 µM", "value": 80.2, "unit": "%"}, {"measurement": "viability, T/C", "setting": "second compound 1 µM, first compound 0.01 µM", "value": 71.1, "unit": "%"}, {"measurement": "viability, T/C", "setting": "second compound 1 µM, first compound 0.0316 µM", "value": 61.3, "unit": "%"}, {"measurement": "viability, T/C", "setting": "second compound 1 µM, first compound 0.1 µM", "value": 74.3, "unit": "%"}, {"measurement": "viability, T/C", "setting": "second compound 3.16 µM, first compound 0.000316 µM", "value": 75.6, "unit": "%"}, {"measurement": "viability, T/C", "setting": "second compound 3.16 µM, first compound 0.001 µM", "value": 74.8, "unit": "%"}, {"measurement": "viability, T/C", "setting": "second compound 3.16 µM, first compound 0.00316 µM", "value": 85.6, "unit": "%"}, {"measurement": "viability, T/C", "setting": "second compound 3.16 µM, first compound 0.01 µM", "value": 81.8, "unit": "%"}, {"measurement": "viability, T/C", "setting": "second compound 3.16 µM, first compound 0.0316 µM", "value": 66.4, "unit": "%"}, {"measurement": "viability, T/C", "setting": "second compound 3.16 µM, first compound 0.1 µM", "value": 66.4, "unit": "%"}, {"measurement": "viability, T/C", "setting": "second compound 10 µM, first compound 0.000316 µM", "value": 82.8, "unit": "%"}, {"measurement": "viability, T/C", "setting": "second compound 10 µM, first compound 0.001 µM", "value": 81.2, "unit": "%"}, {"measurement": "viability, T/C", "setting": "second compound 10 µM, first compound 0.00316 µM", "value": 100, "unit": "%"}, {"measurement": "viability, T/C", "setting": "second compound 10 µM, first compound 0.01 µM", "value": 90.3, "unit": "%"}, {"measurement": "viability, T/C", "setting": "second compound 10 µM, first compound 0.0316 µM", "value": 77.3, "unit": "%"}, {"measurement": "viability, T/C", "setting": "second compound 10 µM, first compound 0.1 µM", "value": 67.8, "unit": "%"}]}, {"smiles": "Nc1ccn(C2OC(CO)C(O)C2(F)F)c(=O)n1", "note": "(stereo not given) + NC1CC1c1ccc(-c2cccc(O)c2)cc1", "values": [{"measurement": "IC50", "setting": "second compound 0.1 µM", "value": "> 300", "unit": "nM"}, {"measurement": "IC50", "setting": "second compound 0.316 µM", "value": "> 300", "unit": "nM"}, {"measurement": "IC50", "setting": "second compound 1 µM", "value": "> 300", "unit": "nM"}, {"measurement": "IC50", "setting": "second compound 3.16 µM", "value": "> 300", "unit": "nM"}, {"measurement": "IC50", "setting": "second compound 10 µM", "value": "> 300", "unit": "nM"}, {"measurement": "viability, T/C", "setting": "second compound 0.1 µM, first compound 0.000949 µM", "value": 75.3, "unit": "%"}, {"measurement": "viability, T/C", "setting": "second compound 0.1 µM, first compound 0.003 µM", "value": 69.9, "unit": "%"}, {"measurement": "viability, T/C", "setting": "second compound 0.1 µM, first compound 0.00949 µM", "value": 86.8, "unit": "%"}, {"measurement": "viability, T/C", "setting": "second compound 0.1 µM, first compound 0.03 µM", "value": 59, "unit": "%"}, {"measurement": "viability, T/C", "setting": "second compound 0.1 µM, first compound 0.0949 µM", "value": 56, "unit": "%"}, {"measurement": "viability, T/C", "setting": "second compound 0.1 µM, first compound 0.3 µM", "value": 58.3, "unit": "%"}, {"measurement": "viability, T/C", "setting": "second compound 0.316 µM, first compound 0.000949 µM", "value": 62.5, "unit": "%"}, {"measurement": "viability, T/C", "setting": "second compound 0.316 µM, first compound 0.003 µM", "value": 83.7, "unit": "%"}, {"measurement": "viability, T/C", "setting": "second compound 0.316 µM, first compound 0.00949 µM", "value": 73.7, "unit": "%"}, {"measurement": "viability, T/C", "setting": "second compound 0.316 µM, first compound 0.03 µM", "value": 64.6, "unit": "%"}, {"measurement": "viability, T/C", "setting": "second compound 0.316 µM, first compound 0.0949 µM", "value": 64.6, "unit": "%"}, {"measurement": "viability, T/C", "setting": "second compound 0.316 µM, first compound 0.3 µM", "value": 67.9, "unit": "%"}, {"measurement": "viability, T/C", "setting": "second compound 1 µM, first compound 0.000949 µM", "value": 77.1, "unit": "%"}, {"measurement": "viability, T/C", "setting": "second compound 1 µM, first compound 0.003 µM", "value": 79.7, "unit": "%"}, {"measurement": "viability, T/C", "setting": "second compound 1 µM, first compound 0.00949 µM", "value": 79.5, "unit": "%"}, {"measurement": "viability, T/C", "setting": "second compound 1 µM, first compound 0.03 µM", "value": 72.8, "unit": "%"}, {"measurement": "viability, T/C", "setting": "second compound 1 µM, first compound 0.0949 µM", "value": 66.7, "unit": "%"}, {"measurement": "viability, T/C", "setting": "second compound 1 µM, first compound 0.3 µM", "value": 57.6, "unit": "%"}, {"measurement": "viability, T/C", "setting": "second compound 3.16 µM, first compound 0.000949 µM", "value": 74.4, "unit": "%"}, {"measurement": "viability, T/C", "setting": "second compound 3.16 µM, first compound 0.003 µM", "value": 75.7, "unit": "%"}, {"measurement": "viability, T/C", "setting": "second compound 3.16 µM, first compound 0.00949 µM", "value": 83.7, "unit": "%"}, {"measurement": "viability, T/C", "setting": "second compound 3.16 µM, first compound 0.03 µM", "value": 74.1, "unit": "%"}, {"measurement": "viability, T/C", "setting": "second compound 3.16 µM, first compound 0.0949 µM", "value": 67.6, "unit": "%"}, {"measurement": "viability, T/C", "setting": "second compound 3.16 µM, first compound 0.3 µM", "value": 85, "unit": "%"}, {"measurement": "viability, T/C", "setting": "second compound 10 µM, first compound 0.000949 µM", "value": 93.5, "unit": "%"}, {"measurement": "viability, T/C", "setting": "second compound 10 µM, first compound 0.003 µM", "value": 79, "unit": "%"}, {"measurement": "viability, T/C", "setting": "second compound 10 µM, first compound 0.00949 µM", "value": 99.7, "unit": "%"}, {"measurement": "viability, T/C", "setting": "second compound 10 µM, first compound 0.03 µM", "value": 73.5, "unit": "%"}, {"measurement": "viability, T/C", "setting": "second compound 10 µM, first compound 0.0949 µM", "value": 70.3, "unit": "%"}, {"measurement": "viability, T/C", "setting": "second compound 10 µM, first compound 0.3 µM", "value": 86.8, "unit": "%"}]}]}
